In PMC6271395, “Synthesis and Biological Activities of Some New (N^α-Dinicotinoyl)-bis-L-Leucyl Linear and Macrocyclic Peptides” (Molecules, 2014):

Key:
Bacillus subtilis = assay: Agar diffusion antimicrobial test, Bacillus subtilis; assay type: cell-based; conditions: Gram+ve, modified Kirby–Bauer disk diffusion, 10 µg/mL
Protocol: (§1) The newly synthesized compounds 3–12 were tested for their preliminary antimicrobial activity against different microorganisms representing Gram-positive (Bacillus subtilis, Bacillus aureus and Staphylococcus aureus), Gram-negative bacteria (Escherichia coli), yeast (Candida albican) and fungi (Aspergillus niger).
(§2) The antimicrobial activities of the synthesized compounds were determined by the agar diffusion method as recommended by the national committee for clinical laboratory standards (NCCLS). The concentrations of the tested compounds (10 µg/mL) were used according to modified Kirby–Bauer’s disk diffusion method. The degree of inhibition is measured in comparison with that of chloramphinicol and fusidic acid taken as standards.

Bacillus aureus = assay: Agar diffusion antimicrobial test, Bacillus aureus; assay type: cell-based; conditions: Gram+ve, modified Kirby–Bauer disk diffusion, 10 µg/mL
Protocol: as §1, §2

Staphylococcus aureus = assay: Agar diffusion antimicrobial test, Staphylococcus aureus; assay type: cell-based; conditions: Gram+ve, modified Kirby–Bauer disk diffusion, 10 µg/mL
Protocol: as §1, §2

Escherichia coli = assay: Agar diffusion antimicrobial test, Escherichia coli; assay type: cell-based; conditions: Gram−ve, modified Kirby–Bauer disk diffusion, 10 µg/mL
Protocol: as §1, §2

Candida albicans = assay: Agar diffusion antimicrobial test, Candida albicans; assay type: cell-based; conditions: Yeast, modified Kirby–Bauer disk diffusion, 10 µg/mL
Protocol: as §1, §2

Aspergillus niger = assay: Agar diffusion antimicrobial test, Aspergillus niger; assay type: cell-based; conditions: Fungi, modified Kirby–Bauer disk diffusion, 10 µg/mL
Protocol: as §1, §2

[1] = tested on: carrageenan-induced edema; assay: Carrageenan-induced edema (rat paw test); assay type: in vivo; conditions: one hour before carrageenan, male albino rats, eight animals per group, paws excised four hours after drug administration
Protocol: (§3) For the determination of the antiphlogistic potency of the synthesized compounds, two standard tests were realized at a dose level 2.5 and 5 mg/kg body weight of the rats, namely the protection against carrageenan-induced edema according to Winter et al. and the inhibition of plasma PGE2. The latter is known as a good confirming indicator for carrageenan-induced rat paw edema. […] For these compounds, a similar activity profile was realized for the inhibition of plasma PGE2.
(§4) Groups of adult male albino rats (150–180 g), each of eight animals were orally dosed with tested compounds at a dose level of 2.5–5 mg/kg one hour before carrageenan challenge. Foot paw edema was induced by subplantar injection of 0.05 cm^3 of a 1% suspension of carrageenan in saline into the plantar tissue of one hind paw. An equal volume of saline was injected to the other hand paw and served as control. Four hours after drug administration the animals were decapitated, blood was collected, and the paws were rapidly excised. The average weight of edema was examined for the treated as well as the control group and the percentage inhibition of weight of edema was also evaluated. Diclofenac potassium (5 mg/kg) was employed as standard reference against which the tested compounds were compared (Table 2).

plasma PGE2 = assay: Inhibition of plasma PGE2 (EIA) in carrageenan-challenged rats; assay type: in vivo, rat; conditions: rats n = 8, blood four hours after drug administration, PGE2 EIA kit
Protocol: as §3, §4
Heparinized blood samples were collected from rats (n = 8), plasma was separated by centrifugation at 12,000 g for 2 min at […], immediately frozen, and stored at […] until use. The design correlate EIA prostaglandin E2 (PGE2) kit (Aldrich, Steinheim, Germany) is a competitive immuno assay for the quantitative determination of PGE2 in biological fluids. The kit uses a monoclonal antibody to PGE2 to bind, in a competitive manner, the PGE2 in the sample after a simultaneous incubation at room temperature. The excess reagents were washed away and the substrate was added, after a short incubation time the enzyme reaction was stopped, and the yellow color generated was read on a microplate reader DYNATech, MR 5000 at 405 nm (Dynatech Industries Inc., McLean, VA, USA). The intensity of the bound yellow color is inversely proportional to the concentration of PGE2 in either standard or samples.

MCF7 = assay type: cell-based, human; conditions: MTT, 3 days, 37 °C; at least three experiments; read-out: IC50 against breast cell line MCF7
Protocol: (§5) The cytotoxicity of the newly synthesized compounds against cancer cell lines in vitro was performed with the MTT assay according to the Mosmann’s method. The MTT assay is based on the reduction of the soluble 3-(4,5-[…]-2-thiazolyl)-2,5-diphenyl-2H-tetrazolium bromide (MTT) into a blue-purple formazan product, mainly by mitochondrial reductase activity inside living cells. The cells used in cytotoxicity assay were cultured in RPMI 1640 medium supplemented with 10% fetal calf serum. Cells suspended in the medium (2 × 10^4 mL^−^1) were plated in 96-well culture plates and incubated at 37 °C in a 5% CO2 incubator. […] The cultured cells were mixed with 20 μL of MTT solution and incubated for 4 h at 37 °C. The supernatant was carefully removed from each well and 100 μL of DMSO were added to each well to dissolve the formazan crystals which were formed by the cellular reduction of MTT. After mixing with a mechanical plate mixer, the absorbance of each well was measured by a microplate reader using a test wavelength of 570 nm. The results were expressed as the IC50, which inducing a 50% inhibition of cell growth of treated cells when compared to the growth of control cells. Each experiment was performed at least three times. There was a good reproducibility between replicate wells with standard errors below 10%.

HS578T = assay type: cell-based; conditions: MTT, 3 days, 37 °C; at least three experiments; read-out: IC50 against breast cell line HS578T
Protocol: as §5

MDAMB231 = assay type: cell-based; conditions: MTT, 3 days, 37 °C; at least three experiments; read-out: IC50 against breast cell line MDAMB231
Protocol: as §5

MDAMB435 = assay type: cell-based; conditions: MTT, 3 days, 37 °C; at least three experiments; read-out: IC50 against breast cell line MDAMB435
Protocol: as §5

| Compound | Inhibition Zome, Bacillus subtilis (Bacillus subtilis) [cm] | Inhibition Zome, Bacillus aureus (Bacillus aureus) [cm] | Inhibition Zome, Staphylococcus aureus (Staphylococcus aureus) [cm] | Inhibition Zome, Escherichia coli (Escherichia coli) [cm] | Inhibition Zome, Candida albicans (Candida albicans) [cm] | Inhibition Zome, Aspergillus niger (Aspergillus niger) [cm] | % Protection against Edema ([1]; dose 2.5 mg/kg oral) [%] | % Protection against Edema ([1]; dose 5.0 mg/kg oral) [%] | % Inhibition of Plasma PGE2 (plasma PGE2; dose 2.5 mg/kg oral) [%] | % Inhibition of Plasma PGE2 (plasma PGE2; dose 5.0 mg/kg oral) [%] | IC50 (MCF7) [µM] | IC50 (HS578T) [µM] | IC50 (MDAMB231) [µM] | IC50 (MDAMB435) [µM] |
| --- | --- | --- | --- | --- | --- | --- | --- | --- | --- | --- | --- | --- | --- | --- |
| 2,6-Bis[(N-[4-methyl-1-(1H-benzo[de]isoquinoline-1,3(2H)-dion)-pentan]-3-carboxamido]pyridine [Compound 8] | 1.90 | 1.94 | 1.95 | 0.90 | 0.98 | 2.00 | 78.88 ± 0.090 | 92.00 ± 0.060 | 57.57 ± 0.045 | 76.00 ± 0.035 |  |  |  |  |
| CC(C)C[C@H](NC(=O)c1cncc(C(=O)N[C@@H](CC(C)C)C(=O)NN)c1)C(=O)NN [Compound 4, N^2,N^2′-(Pyridine-3,5-dicarbonyl)-di-L-leucyl hydrazide] | 1.85 | 1.92 | 1.80 | 0.80 | 0.92 | 1.56 | 93.45 ± 0.074 | 98.56 ± 0.060 | 75.66 ± 0.040 | 80.01 ± 0.058 |  |  |  |  |
| CC(C)C[C@H](NC(=O)c1cncc(C(=O)N[C@@H](CC(C)C)C(=O)NN2C(=O)c3ccccc3C2=O)c1)C(=O)NN1C(=O)c2ccccc2C1=O [Compound 7a] | 1.55 | 1.84 | 1.58 | 0.75 | 1.02 | 1.64 | 97.45 ± 0.054 | 98.86 ± 0.046 | 81.30 ± 0.044 | 82.48 ± 0.052 |  |  |  |  |
| C/C(=N\NC(=O)[C@H](CC(C)C)NC(=O)c1cncc(C(=O)N[C@@H](CC(C)C)C(=O)N/N=C(\C)c2ccc(Cl)cc2)c1)c1ccc(Cl)cc1 [Compound 9a] | 1.84 | 1.88 | 1.76 | 0.92 | 1.10 | 2.01 | 82.16 ± 0.076 | 93.16 ± 0.064 | 58.96 ± 0.024 | 74.58 ± 0.040 |  |  |  |  |
| COc1ccc(/C(C)=N/NC(=O)[C@H](CC(C)C)NC(=O)c2cncc(C(=O)N[C@@H](CC(C)C)C(=O)N/N=C(\C)c3ccc(OC)cc3)c2)cc1 [Compound 9b] | 1.60 | 1.74 | 1.72 | 0.75 | 1.00 | 1.88 | 79.34 ± 0.081 | 92.92 ± 0.090 | 57.90 ± 0.040 | 77.14 ± 0.052 |  |  |  |  |
| CC(C)C[C@H](NC(=O)c1cncc(C(=O)N[C@@H](CC(C)C)C(=O)N/N=C/c2ccc([N+](=O)[O-])cc2)c1)C(=O)N/N=C/c1ccc([N+](=O)[O-])cc1 [Compound 10d] | 1.85 | 2.00 | 1.92 | 0.90 | 0.96 | 2.00 | 81.00 ± 0.072 | 95.82 ± 0.062 | 63.14 ± 0.023 | 79.88 ± 0.031 | 0.00035 | 5.67 | 3.67 | 57.5 |
